Results taken from patent US9801840B1, “Pharmaceutical composition and use thereof” (priority 2016, dated 2017).

Key:
Src = test: Immunoprecipitation and Western blot analysis, Huh7 cell lines; type: cell-based; conditions: Huh7, 15 mins treatment
HepG2 cell lines [1] = test: Cytotoxicity assay (MTT); type: cell-based; conditions: HepG2, 24 hours
Procedure: (§1) The HCC cell lines: Huh7, HepG2 and Hep3B were obtained from Japanese Collection of Research Bioresources (National Institute of Health Sciences; Japan, JCRB) and maintained in Dulbecco's Modified Eagle's Medium-High Glucose (Invitrogen) medium with 10% fetal bovine serum (FBS), 2 mM L-glutamine (Invitrogen), and 100 μg/mL penicillin-streptomycin (Invitrogen). Cells were cultured in a humidified atmosphere in 5% CO2 at 37° C. A well-known cytotoxicity assays in the art, for example, the assay described by Wang et al. can be performed to study the cytotoxicity of the pharmaceutical composition provided by the present invention. […] The number of viable cells was determined by MTT assay.

Cytotoxicity assay (MTT) = type: cell-based; conditions: human, Huh7 cells (HCC cell line), Huh7, 24 hours
Procedure: as §1

Hep3B cell lines [2] = test: Cytotoxicity assay (MTT); type: cell-based; conditions: 24 hours
Procedure: as §1

VEGFR2 = test: Immunoprecipitation and Western blot analysis, Huh7 cell lines; type: cell-based; conditions: Huh7, 15 mins treatment, vs control
Procedure: The lysates were then sonicated and centrifuged. The supernatant was kept and incubated with anti-VEGFR1 antibody, anti-VEGFR2 antibody, and anti-VEGFR3 antibody (Santa Cruz Biotechnology, Inc.) overnight at 4° C. The immune-complexes were washed and eluted, and then analyzed by Western blotting.

Huh7 cell lines [3] = test: G-actin/F-actin activity assay; type: cell-based; conditions: Huh7, 6 hours, vs control
Procedure: Actin activity assay can be conducted by known methods, for example, the method described in Shum et al. (2011). Briefly, Huh7 cell lines were cultured by the method described in Example 2 and treated with 0.1% DMSO (control) or CA for 6 hours and incubated in stabilizing buffer (1% Triton X-100, 1 μg phalloidin, and protease inhibitor cocktail) at room temperature for 5 mins. Cell lysates were collected, followed by centrifugation at 100,000×g at 37° C. for 1 hour. The supernatant was removed and saved as the G-actin fraction. The pellet was washed twice with PBS and dissolved in dissolving buffer solution (1% Triton X-100, 2% SDS, and protease inhibitor cocktail) by sonication, the mixture was put on ice for 1 h, and saved as the F-actin fraction.

[4] = biological target: T1, VEGFR2 (kinase insert domain receptor, KDR) (Homo sapiens, UniProt P35968); test: ADP-Glo kinase activity assay; type: biochemical; conditions: 10 μM ATP, read-out: concentration inhibiting VEGFR2 activity by 50%
T1 construct: purchased Promega V2681
Procedure: Briefly, CA was first diluted with a kinase reaction buffer solution at a 1:2 dilution ratio. Three nanograms of kinase insert domain receptor (KDR, #V2681, Promega) were added and incubated for 10 mins. Then, 0.1 μg/μL substrate and 10 μM ATP were added and incubated for 1 hour at room temperature. Next, 25 μL of ADP-Glo reagent was added to the mixture and incubated at room temperature for 40 mins. Finally, 50 μL of a kinase detection reagent was added to introduce luciferase and samples were measured.

HepG2 cell lines [5] = test: Transwell migration assay; type: cell-based; conditions: HepG2, 1-16 μM, 16 hours
Procedure: (§2) Then, the cells were seeded into Transwell inserts (8 μm pore; BD Biosciences). The mediums were incubated for 16 hours, and the migrated cells were fixed, stained with crystal violet, and quantified.
(§3) Except for the compound represented by formula (1), the pharmaceutical composition can further comprises at least one known anticancer agent. […] The software was used to estimate the combination index (CI) and Fa (fraction affected by drugs) and to interpret the combined effect of drugs. CI<1, CI=1, and CI>1 respectively indicate synergistic, additive, and antagonistic effects.

Hep3B cell lines [6] = test: Transwell migration assay; type: cell-based; conditions: 1-16 μM, 16 hours
Procedure: as §2, §3

Huh7 cell lines [7] = test: Transwell migration assay; type: cell-based
Procedure: as §2, §3

cdc42 = test: Rho GTPase activity assay (GST pull-down, Western blot), Huh7 cell lines; type: cell-based; conditions: Huh7, 6 hours
Procedure: Huh7 cell lines were cultured by the method described in Example 2 and treated with 0.1% DMSO (control) or CA for 6 hours and then collected. After the Huh7 cell lines were lysed, the cell lysates (500 μg) were combined with purified GST fusion protein which has conjugated with Rac1, RhoA, or cdc42 binding domain (PAK-PBD for Rac1 and cdc42, Raf-RBD for RhoA) and incubated at 4° C. overnight. The immune-complex was precipitated and then centrifuged at 14,000 rpm for 30 mins. The samples were washed with RIPA buffer solution, boiled with SDS sample buffer solution, and analyzed by Western blot analysis.

Huh7 cell lines [8] = test: Antitumor response in vivo, Huh7 xenograft; set-up: species or system mice; conditions: 5 mg/kg/day intraperitoneal
Procedure: All animal experiments were conducted according to the guidelines approved by the Institutional Animal Care and Use Committees of the College of Medicine, National Taiwan University and National Taiwan Normal University. The study was approved by the Animal Care and Use Committees of the College of Medicine, National Taiwan University and National Taiwan Normal University. Male NOD/SCID mice (4-6 weeks old) (obtained from BioLASCO Taiwan Co., Ltd) were housed into individually-ventilated cages with free access to food and drinking water. […] The tumor volume was calculated by the following equation: tumor volume(mm^3)=(length [mm])×(width [mm])^2×0.5.

Huh7 cell lines [9] = test: Confocal microscopy analysis of p-FAK (Tyr397) and F-actin; type: cell-based; conditions: Huh7, 6 hour
Procedure: Huh7 cell lines cultured by the method described in Example 2 were seeded on a 22×22 cover slip and treated with 0.1% DMSO (control) or CA for 6 hour. The cells were washed, fixed, and permeabilized with 0.25% Triton X-100 for 10 mins. Next, the cover slips were incubated with p-FAK (Tyr397) primary antibody overnight, and then stained with Alexa488 (anti-rabbit) and Alexa568-phallodin (20 mU/mL) for 1 hour in darkness. Finally, the samples were counterstained for nuclei with DAPI (10 ng/mL) for 10 mins. The images were captured and analyzed using the Leica TCS SP5 Spectral Confocal System. The actin filament intensity was measured by ImageJ (NIH) and calculated by the following formula described by Bennett et al. (2013): Corrected total cell fluorescence (CTCF)=Integrated Density−(Area of selected cell×Mean fluorescence of background readings).

FAK (Tyr397) = test: Immunoprecipitation and Western blot analysis, Huh7 cell lines; type: cell-based; conditions: Huh7, 15 mins treatment
p-FAK (Tyr397) = test: Immunohistochemistry of excised xenograft tumors; type: in vivo; conditions: HCC xenograft mice, CA 5 mg/kg/day
Description: (§4) Tumor samples obtained from experiment 4-1 were fixed in 10% […], embedded in paraffin, and sectioned. The tissue sections were then subjected to immunohistochemical staining with the Novolink Polymer Detection System (Leica Biosystems). The sections were stained for p-VEGFR2 (Tyr951, Cell Signaling Technology), Ki-67 and p-FAK (Tyr397) (Santa Cruz Biotechnology), and the nuclei were counterstained with hematoxylin.

p-VEGFR2 (Tyr951) = test: Immunohistochemistry of excised xenograft tumors; type: in vivo; conditions: HCC xenograft mice, CA 5 mg/kg/day
Description: as §4

FAK = conditions: xenograft model
Procedure: To study the combinatorial effect of CA and sorafenib, Huh7 cell lines (5×10^6 cells) were suspended in 100 μL of Opti-MEM with matrigel-matrix, and injected subcutaneously into the flanks of each mouse. After one week, the mice were treated with 50 μL DMSO (control) and combined compounds by intraperitoneal injection (n=5 for each group) for 20 days.
At the end of the experiment, the mice were sacrificed. The tumors were excised, weighed, and fixed for further studies.

T1 sequence (P35968 20-1356): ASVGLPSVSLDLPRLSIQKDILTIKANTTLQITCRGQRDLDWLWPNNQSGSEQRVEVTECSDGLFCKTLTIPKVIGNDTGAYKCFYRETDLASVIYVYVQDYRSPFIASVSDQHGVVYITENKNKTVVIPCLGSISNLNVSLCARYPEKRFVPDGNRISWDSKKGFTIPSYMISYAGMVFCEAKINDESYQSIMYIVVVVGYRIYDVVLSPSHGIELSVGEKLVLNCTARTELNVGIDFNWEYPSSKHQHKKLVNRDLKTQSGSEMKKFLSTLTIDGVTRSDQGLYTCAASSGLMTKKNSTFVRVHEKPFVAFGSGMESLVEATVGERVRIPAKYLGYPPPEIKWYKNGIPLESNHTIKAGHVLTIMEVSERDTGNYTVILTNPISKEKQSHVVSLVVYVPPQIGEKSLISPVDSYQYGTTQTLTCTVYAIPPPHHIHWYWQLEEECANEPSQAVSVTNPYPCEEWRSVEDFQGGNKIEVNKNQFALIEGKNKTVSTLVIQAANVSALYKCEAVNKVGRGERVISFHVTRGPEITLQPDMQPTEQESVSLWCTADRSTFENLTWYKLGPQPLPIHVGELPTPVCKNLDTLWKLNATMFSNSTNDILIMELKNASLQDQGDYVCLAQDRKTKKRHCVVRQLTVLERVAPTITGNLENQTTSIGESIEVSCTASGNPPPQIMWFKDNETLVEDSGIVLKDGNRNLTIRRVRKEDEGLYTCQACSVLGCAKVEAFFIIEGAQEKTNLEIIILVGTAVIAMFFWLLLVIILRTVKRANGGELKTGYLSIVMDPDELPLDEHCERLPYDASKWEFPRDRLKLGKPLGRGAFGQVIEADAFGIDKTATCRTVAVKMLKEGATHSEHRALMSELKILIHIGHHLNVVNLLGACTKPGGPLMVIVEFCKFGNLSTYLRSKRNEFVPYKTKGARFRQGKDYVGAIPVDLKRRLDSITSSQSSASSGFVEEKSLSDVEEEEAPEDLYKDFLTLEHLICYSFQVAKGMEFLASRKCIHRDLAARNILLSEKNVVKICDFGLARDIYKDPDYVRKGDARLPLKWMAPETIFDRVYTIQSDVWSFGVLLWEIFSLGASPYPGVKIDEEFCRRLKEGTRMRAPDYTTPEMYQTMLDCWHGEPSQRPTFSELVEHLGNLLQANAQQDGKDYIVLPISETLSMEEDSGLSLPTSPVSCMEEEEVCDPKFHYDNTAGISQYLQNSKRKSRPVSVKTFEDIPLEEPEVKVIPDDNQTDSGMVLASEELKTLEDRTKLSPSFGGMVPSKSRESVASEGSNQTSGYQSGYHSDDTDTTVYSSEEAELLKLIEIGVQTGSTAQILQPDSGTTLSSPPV

C[C@H]1[C@H](C)CC[C@]2(C(=O)O)CC[C@]3(C)C(=CC[C@@H]4[C@@]5(C)C[C@@H](O)[C@H](O)C(C)(C)[C@@H]5CC[C@]43C)[C@H]12 [CA, corosolic acid]
phosphorylation level of Src (Src): down-regulated
cytotoxicity (HepG2 cell lines [1]): lower cytotoxicity
IC50 at 24 h (Cytotoxicity assay (MTT)): 50 µM
cytotoxicity (Hep3B cell lines [2]): lower cytotoxicity
phosphorylation level of VEGFR2 (VEGFR2): lower
ratio of F-actin/G-actin (polymer/monomer) (Huh7 cell lines [3]): reduces
IC50 [4]: ~950 nM
inhibition of migration (HepG2 cell lines [5]): effectively inhibited the migration
inhibition of migration (Hep3B cell lines [6]): effectively inhibited the migration
IC50 cytotoxicity/IC50 migration (Huh7 cell lines [7]; HCC cell lines): ≥ 20
inhibition of migration (Huh7 cell lines [7]; Huh7, 1-16 μM, 16 hours): effectively inhibited the migration
IC50 (cdc42; Homo sapiens, Huh-7, read-out: concentration reducing the activity of cdc42 by 50%): 2000 nM
activated cdc42 (cdc42): significantly down-regulated
reduction in tumor mass as compared with the control group (Huh7 cell lines [8]; 21 days): 85%
volumes of the tumor (Huh7 cell lines [8]; after 21-day treatment): 63±19 mm^3
co-localization of phosphorylation of FAK (Tyr397) and F-actin on the filopodium (Huh7 cell lines [9]): decreases
phosphorylation level of FAK (Tyr397) (FAK (Tyr397)): down-regulated
phosphorylation of FAK in tumor (immunohistochemistry) (p-FAK (Tyr397)): reduced phosphorylation of both VEGFR2 and FAK significantly
phosphorylation of VEGFR2 in tumor (immunohistochemistry) (p-VEGFR2 (Tyr951)): reduced phosphorylation of both VEGFR2 and FAK significantly

CNC(=O)c1cc(Oc2ccc(NC(=O)Nc3ccc(Cl)c(C(F)(F)F)c3)cc2)ccn1 [sorafenib]
phosphorylation level / activation of FAK kinase in the tumor in the mice (FAK): didn't show any inhibitory effect

C[C@H]1[C@H](C)CC[C@]2(C(=O)O)CC[C@]3(C)C(=CC[C@@H]4[C@@]5(C)CC[C@H](O)C(C)(C)[C@@H]5CC[C@]43C)[C@H]12 [ursolic acid, 3β-hydroxyurs-12-ursen-28-ic acid, reference compound]
inhibitory activity to cell migration (FIG. 2D comparison) (Huh7 cell lines [7]; Huh7, CA vs sorafenib vs ursolic acid): did not show significant inhibitory activity
